What was measured:
[1] = Inhibition of human GSK3 using biotin-CREB peptide substrate after 1 hr by scintillation counting method
[2] = Inhibition of GSK3 expressed in CHO-IR cells expressing human insulin receptor assessed as glycogen synthase activation after 30 mins by filter paper assay; type: cell-based, Cavia porcellus
[3] = Stability in rat liver microsomes assessed as half life; type: ADME, microsome
[4] = Stability in dog liver microsomes assessed as half life; type: ADME, Canis lupus familiaris, microsome
[5] = Plasma concentration in diabetic db/db mouse at 30 mg/kg administered at 4.5 and 0.5 hrs prior to oral glucose challenge measured 20 mins post second dose; settings: plasma

## Nc1nc(NCCNc2ncc(-c3ncc[nH]3)c(-c3ccc(F)cc3C(F)(F)F)n2)ccc1[N+](=O)[O-]
[1]
  IC50: 13 nM
[2]
  EC50: 3300 nM
[3]
  half-life: > 30 min
[4]
  half-life: > 30 min

## CN1CCN(c2cnc(NCCNc3ccc([N+](=O)[O-])c(N)n3)nc2-c2ccc(Cl)cc2Cl)C(=O)C1
[1]
  IC50: 4 nM
[2]
  EC50: 30 nM
[5]
  concentration at 20 min: 4000 ng/mL

## Nc1cnc(NCCNc2ccc([N+](=O)[O-])c(N)n2)nc1-c1ccc(Cl)cc1Cl
[1]
  IC50: 10 nM
[2]
  EC50: 290 nM
[5]
  concentration at 20 min: 1000 ng/mL

## Nc1nc(NCCNc2ncc(-c3ncc[nH]3)c(-c3cc(F)c(Cl)cc3Cl)n2)ccc1[N+](=O)[O-]
[1]
  IC50: 13 nM
[2]
  EC50: 2280 nM
[3]
  half-life: > 30 min
[4]
  half-life: > 30 min

## Clc1ccc(-c2nc(NCCNc3ccccn3)ncc2-c2ncc[nH]2)c(Cl)c1
[1]
  IC50: 2860 nM
[3]
  half-life: > 30 min
[4]
  half-life: > 30 min

## Nc1nc(NCCNc2ncc(-c3ncc[nH]3)c(-c3ccc(Cl)cc3Br)n2)ccc1[N+](=O)[O-]
[1]
  IC50: 6 nM
[2]
  EC50: 260 nM
[3]
  half-life: > 30 min
[4]
  half-life: > 30 min
[5]
  concentration at 20 min: 13000 ng/mL

## Nc1nc(NCCNc2ncc(CO)c(-c3ccc(Cl)cc3Cl)n2)ccc1[N+](=O)[O-]
[1]
  IC50: 7 nM
[2]
  EC50: 150 nM
[5]
  concentration at 20 min: 12000 ng/mL

## COc1cc(Cl)ccc1-c1nc(NCCNc2ccc([N+](=O)[O-])c(N)n2)ncc1-c1ncc[nH]1
[1]
  IC50: 249 nM
[3]
  half-life: > 30 min
[4]
  half-life: > 30 min

## Nc1nc(NCCNc2ncc(-c3ncc[nH]3)c(-c3ccc(C(F)(F)F)cc3)n2)ccc1[N+](=O)[O-]
[1]
  IC50: 51 nM
[2]
  EC50: 5920 nM
[3]
  half-life: > 30 min
[4]
  half-life: > 30 min

## Nc1nc(NCCNc2ncc(-c3ncc[nH]3)c(-c3ccccc3Cl)n2)ccc1[N+](=O)[O-]
[1]
  IC50: 12 nM
[2]
  EC50: 730 nM
[3]
  half-life: > 30 min
[4]
  half-life: > 30 min

## Nc1nc(NCCNc2ncc(-c3ncc[nH]3)c(-c3ccc(Br)cc3F)n2)ccc1[N+](=O)[O-]
[1]
  IC50: 5 nM
[2]
  EC50: 500 nM
[3]
  half-life: > 30 min
[4]
  half-life: > 30 min

## Nc1nc(NCCNc2ncc(-c3ncc[nH]3)c(-c3ccc(Br)cc3Cl)n2)ccc1[N+](=O)[O-]
[1]
  IC50: 4 nM
[2]
  EC50: 430 nM
[3]
  half-life: > 30 min
[4]
  half-life: > 30 min

## N#Cc1ccc(NCCNc2ncc(-n3ccnc3)c(-c3ccc(Cl)cc3Cl)n2)nc1
[1]
  IC50: 25 nM
[2]
  EC50: 790 nM
[5]
  concentration at 20 min: 13000 ng/mL

## Cc1ccc(-c2nc(NCCNc3ccc([N+](=O)[O-])c(N)n3)ncc2-c2ncc[nH]2)c(Br)c1
[1]
  IC50: 4 nM
[2]
  EC50: 50 nM
[3]
  half-life: > 30 min
[4]
  half-life: > 30 min

## Cc1cc(Cl)ccc1-c1nc(NCCNc2ccc([N+](=O)[O-])c(N)n2)ncc1-c1ncc[nH]1
[1]
  IC50: 19 nM
[2]
  EC50: 810 nM
[3]
  half-life: > 30 min
[4]
  half-life: > 30 min

## Nc1nc(NCCNc2ncc(-c3ncc[nH]3)c(-c3cc(F)c(F)cc3F)n2)ccc1[N+](=O)[O-]
[1]
  IC50: 38 nM
[2]
  EC50: 6880 nM
[3]
  half-life: > 30 min
[4]
  half-life: > 30 min

## Nc1nc(NCCNc2ncc(-c3ncc[nH]3)c(-c3ccccc3Br)n2)ccc1[N+](=O)[O-]
[1]
  IC50: 7 nM
[2]
  EC50: 240 nM
[3]
  half-life: > 30 min
[4]
  half-life: > 30 min

## Nc1nc(NCCNc2ncc(-c3ncc[nH]3)c(-c3ccc(F)cc3F)n2)ccc1[N+](=O)[O-]
[1]
  IC50: 9 nM
[2]
  EC50: 5650 nM
[3]
  half-life: > 30 min
[4]
  half-life: > 30 min

## Nc1nc(NCCNc2ncc(-c3ncc[nH]3)c(-c3ccc(Cl)cc3F)n2)ccc1[N+](=O)[O-]
[1]
  IC50: 5 nM
[2]
  EC50: 1020 nM
[3]
  half-life: > 30 min
[4]
  half-life: > 30 min

## Nc1nc(NCCNc2ncc(-c3ncc[nH]3)c(-c3ccc(F)cc3Cl)n2)ccc1[N+](=O)[O-]
[1]
  IC50: 7 nM
[2]
  EC50: 420 nM
[3]
  half-life: > 30 min
[4]
  half-life: > 30 min

## Cc1nc(-c2cnc(NCCNc3ccc([N+](=O)[O-])c(N)n3)nc2-c2ccc(Cl)cc2Cl)[nH]c1C
[1]
  IC50: 3 nM
[2]
  EC50: 440 nM

## Nc1nc(NCCNc2ncc(-c3ncc[nH]3)c(-c3cc(F)c(Cl)cc3F)n2)ccc1[N+](=O)[O-]
[1]
  IC50: 19 nM
[2]
  EC50: 2190 nM
[3]
  half-life: > 30 min
[4]
  half-life: > 30 min

## FC(F)(F)c1ccc(NCCNc2ncc(-n3ccnc3)c(-c3ccc(Cl)cc3Cl)n2)nc1
[1]
  IC50: 223 nM
[2]
  EC50: 3840 nM

## O=[N+]([O-])c1ccc(NCCN(CCN2CCCC2)c2ncc(-n3ccnc3)c(-c3ccc(Cl)cc3Cl)n2)nc1
[1]
  IC50: 26 nM
[2]
  EC50: 370 nM

## O=[N+]([O-])c1ccc(NCCNc2ncc(-n3cnnn3)c(-c3ccc(Cl)cc3Cl)n2)nc1
[1]
  IC50: 15 nM
[2]
  EC50: 280 nM

## Cc1c[nH]c(-c2cnc(NCCNc3ccc([N+](=O)[O-])cn3)nc2-c2ccc(Cl)cc2Cl)n1
[1]
  IC50: 8 nM
[2]
  EC50: 290 nM
[5]
  concentration at 20 min: 19000 ng/mL

## N#Cc1ccc(-c2nc(NCCNc3ccc([N+](=O)[O-])c(N)n3)ncc2-c2ncc[nH]2)cc1
[1]
  IC50: 7 nM
[2]
  EC50: > 10000 nM
[3]
  half-life: > 30 min
[4]
  half-life: > 30 min

## CC(C)(C)NC(=O)c1cnc(NCCNc2ccc([N+](=O)[O-])cn2)nc1-c1ccc(C#N)cc1
[1]
  IC50: 110 nM
[2]
  EC50: > 10000 nM

## Nc1nc(NCCNc2ncc(-c3ncc[nH]3)c(-c3cc(F)ccc3F)n2)ccc1[N+](=O)[O-]
[1]
  IC50: 47 nM
[2]
  EC50: 3000 nM
[3]
  half-life: > 30 min
[4]
  half-life: > 30 min

## Clc1ccc(-c2nc(NCCNc3cc(Cl)ncn3)ncc2-n2ccnc2)c(Cl)c1
[1]
  IC50: 201 nM
[2]
  EC50: 3900 nM

## Nc1nc(NCCNc2ncc(-c3ncc[nH]3)c(-c3ccc(F)cc3Br)n2)ccc1[N+](=O)[O-]
[1]
  IC50: 4 nM
[2]
  EC50: 220 nM
[3]
  half-life: > 30 min
[4]
  half-life: > 30 min

## Nc1nc(NCCNc2ncc(-c3ncc[nH]3)c(-c3ccc(Cl)cc3)n2)ccc1[N+](=O)[O-]
[1]
  IC50: 31 nM
[2]
  EC50: 2500 nM
[3]
  half-life: > 30 min
[4]
  half-life: > 30 min

## Nc1nc(NCCNc2ncc(-n3cccc(C(F)(F)F)c3=O)c(-c3ccc(Cl)cc3Cl)n2)ccc1[N+](=O)[O-]
[1]
  IC50: 4 nM
[2]
  EC50: 40 nM

## Nc1nc(NCCNc2ncc(N3CCOCC3)c(-c3ccc(Cl)cc3Cl)n2)ccc1[N+](=O)[O-]
[1]
  IC50: 7 nM
[2]
  EC50: 70 nM
[5]
  concentration at 20 min: 1000 ng/mL

## Cc1nc(-c2cnc(NCCNc3ccc([N+](=O)[O-])c(N)n3)nc2-c2ccc(Cl)cc2Cl)n(C)c1C
[1]
  IC50: 22 nM
[2]
  EC50: 320 nM

## Nc1nc(NCCNc2ncc(-c3nc(-c4ccccc4)c[nH]3)c(-c3ccc(Cl)cc3Cl)n2)ccc1[N+](=O)[O-]
[1]
  IC50: 1 nM
[2]
  EC50: 130 nM

## COc1ccc(-c2nc(NCCNc3ccc([N+](=O)[O-])cn3)ncc2-n2ccnc2)cc1
[1]
  IC50: 68 nM
[2]
  EC50: 2100 nM

## CCOC(=O)c1c(CC)nc(NCCNc2ccc([N+](=O)[O-])cn2)nc1-c1ccc(C#N)cc1
[1]
  IC50: 40 nM
[2]
  EC50: 1700 nM

## Nc1nc(NCCNc2ncc(-c3nc(C(F)(F)F)c[nH]3)c(-c3ccc(Cl)cc3Cl)n2)ccc1[N+](=O)[O-]
[1]
  IC50: 34 nM
[2]
  EC50: 170 nM

## FC(F)(F)c1ccc(NCCNc2ncc(-c3ncc[nH]3)c(-c3ccc(Cl)cc3Cl)n2)nc1
[1]
  IC50: 35 nM
[2]
  EC50: 1240 nM
[3]
  half-life: > 30 min
[4]
  half-life: > 30 min

## O=[N+]([O-])c1ccc(NCCNc2ncc(-n3ccnc3)c(-c3ccccc3)n2)nc1
[1]
  IC50: 197 nM
[2]
  EC50: 23900 nM

## CN(C)CCOC(=O)c1cnc(NCCNc2ccc([N+](=O)[O-])cn2)nc1-c1ccc(C#N)cc1
[1]
  IC50: 50 nM
[2]
  EC50: 3400 nM

## N#Cc1cnc(NCCNc2ncc(-n3ccnc3)c(-c3ccc(Cl)cc3Cl)n2)nc1N
[1]
  IC50: 236 nM
[2]
  EC50: 9440 nM

## CN(CCNc1ccc([N+](=O)[O-])cn1)c1ncc(-n2ccnc2)c(-c2ccc(Cl)cc2Cl)n1
[1]
  IC50: 22 nM
[2]
  EC50: 80 nM

## Nc1nc(NCCNc2ncc(-c3ncc[nH]3)c(-c3cc(F)ccc3Cl)n2)ccc1[N+](=O)[O-]
[1]
  IC50: 32 nM
[3]
  half-life: > 30 min
[4]
  half-life: > 30 min

## O=[N+]([O-])c1ccc(NCCNc2ncc(-n3ccnc3)c(-c3ccc(Cl)cc3Cl)n2)nc1
[1]
  IC50: 6 nM
[2]
  EC50: 300 nM

## CN1CCN(c2cnc(NCCNc3ccc([N+](=O)[O-])c(N)n3)nc2-c2ccc(Cl)cc2Cl)CC1
[1]
  IC50: 6 nM
[2]
  EC50: 50 nM
[5]
  concentration at 20 min: 3000 ng/mL

## O=[N+]([O-])c1cnc(NCCNc2ncc(-n3ccnc3)c(-c3ccc(Cl)cc3Cl)n2)s1
[1]
  IC50: 24 nM
[2]
  EC50: > 10000 nM

## N#Cc1ccc(-c2nc(NCCNc3ccc([N+](=O)[O-])cn3)ncc2-c2ncc[nH]2)cc1
[1]
  IC50: 19 nM
[2]
  EC50: 5000 nM
[5]
  concentration at 20 min: 1000 ng/mL

## N#Cc1ccc(-c2nc(NCCNc3ccc([N+](=O)[O-])cn3)ncc2C(=O)OCCO)cc1
[1]
  IC50: 51 nM
[2]
  EC50: 8300 nM

## N#Cc1ccc(-c2nc(NCCNc3ccc([N+](=O)[O-])cn3)ncc2-n2ccnc2)cc1
[1]
  IC50: 11 nM
[2]
  EC50: 1300 nM
[5]
  concentration at 20 min: 5000 ng/mL

## CN(C)CCN(CCNc1ccc([N+](=O)[O-])cn1)c1ncc(-n2ccnc2)c(-c2ccc(Cl)cc2Cl)n1
[1]
  IC50: 35 nM
[2]
  EC50: 350 nM

## Nc1nc(NCCNc2ncc(N3CCNCC3=O)c(-c3ccc(Cl)cc3Cl)n2)ccc1[N+](=O)[O-]
[1]
  IC50: 15 nM
[2]
  EC50: 5410 nM

## Cc1cc(NCCNc2ncc(-n3ccnc3)c(-c3ccc(Cl)cc3Cl)n2)n2ncnc2n1
[1]
  IC50: 108 nM
[2]
  EC50: > 10000 nM

## CN1CCCC1CCN(CCNc1ccc([N+](=O)[O-])cn1)c1ncc(-n2ccnc2)c(-c2ccc(Cl)cc2Cl)n1 (stereo not drawn)
[1]
  IC50: 27 nM
[2]
  EC50: 110 nM
